# Measurements as given in patent publication US20250066328A1, “PARP7 INHIBITORS” (Gilead Sciences, Inc., priority 2023, published 2025).
# System: STAT1 (phosphorylated at Tyr701) in NCI-H1373 cells
# Test: Phospho-STAT1 (Tyr701) LANCE Ultra TR-FRET detection assay in NCI-H1373 cells
# Assay type: cell-based
# Conditions: Homo sapiens, NCI-H1373, 48 h, 48 hours incubation, induction of pSTAT1, normalized to 10 uM positive control and DMSO, 4-parameter fit, read-out: NH1373 pSTAT1 EC50
# Experimental: Phospho-STAT1 (Tyr701 LANCE Ultra TR-FRET Detection Assay
# LANCE Ultra phospho-STAT1 (Tyr701) kits are designed for the detection of phosphorylated STAT1 in cell lysates using a simple, homogeneous LANCE Ultra sandwich assay (Cat. #TRF4028M). This assay is intended for assessing compound induction of endogenous levels of cellular STAT1 (phosphorylated at Tyr701) in NCI-H1373 cells. The NCI-H1373 cells are cultured in RPMI 1640 media containing 10% heat inactivated FBS, GlutaMAX, 1% Penicillin-Streptomycin. An Echo acoustic liquid handler is used to transfer 60 nanoliters of compound dilutions using the Echo Qualified, 384-well polypropylene microplate clear flat bottom source plates into a Greiner (#781080) cell culture microplate. NCI-H1373 cells are seeded into these compound-spotted culture plates at 30,000 cells/well in a 60 uL volume in growth media. The plates are incubated in a 5% CO2 humidified incubator at 37° C. for 48 hours. […] Briefly, […] of supplemented lysis buffer is added to each well and allowed to shake for 1 hour at 400 rpm. Next, 5 ul of remixed antibody solutions (vol/vol) prepared in detection buffer are added to each well and allowed to incubate at room temperature overnight. After spinning the plate down at 300 rpm for 1 min, the plate is read on an EnVision plate reader set up for Eu^3+ Cryptate and fluorescence emission is measured at two different wavelengths (665 nm and 620 nm). The HTRF ratio is then calculated ([…]) for each well to determine the amount of pSTAT1 in the cell lysate, and the data is then normalized to 10 uM (S)-5-((1-(3-oxo-3-(4-(5-(trifluoromethyl)pyrimidin-2-yl)piperazin-1-yl)propoxy)propan-2-yl)amino)-4-(trifluoromethyl)pyridazin-3(2H)-one positive and DMSO negative controls. The values were then plotted as a function of compound concentration and a 4-parameter fit was applied to derive the EC50 values.
row,Structure (SMILES),EC50
1,"C[C@@H](C[C@@H](F)Cn1ccc2cc(-c3ncc(Cl)cn3)c(F)c(F)c2c1=O)Oc1cn[nH]c(=O)c1C(F)(F)F (single isomer, unassigned) [Example 43]",0.62 nM
2,"C[C@@H](C[C@@H](O)Cn1ccc2cc(-c3nc4ccccn4n3)c(F)cc2c1=O)Nc1cn[nH]c(=O)c1C(F)(F)F (single isomer, unassigned) [Example 22]",2.7 nM
3,COc1cnc(-c2cc3ccn(C[C@H](F)C[C@H](C)Oc4cn[nH]c(=O)c4C(F)(F)F)c(=O)c3cc2F)nc1 [Example 45],1.01 nM
4,"CC(C[C@H](C)Nc1cn[nH]c(=O)c1C(F)(F)F)Cn1ccc2cc(-c3ncc(C(F)(F)F)cn3)c(F)cc2c1=O (stereo partly drawn) [Example 116, 7-fluoro-2-((4S)-2-methyl-4-((6-oxo-5-(trifluoromethyl)-1,6-dihydropyridazin-4-yl)amino)pentyl)-6-(5-(trifluoromethyl)pyrimidin-2-yl)isoquinolin-1(2H)-one]",89.9 nM
5,"C[C@@H](C[C@H](F)Cn1ccc2cc(-c3ncc(C(C)(C)O)cn3)c(F)cc2c1=O)Nc1cn[nH]c(=O)c1C(F)(F)F (single isomer, unassigned) [Example 9]",238 nM
6,C[C@@H](C[C@@H](F)Cn1cc(F)c2cc(-c3ncc(C(F)F)cn3)c(F)cc2c1=O)Oc1cn[nH]c(=O)c1C(F)(F)F [Example 52],67.9 nM
7,C[C@@H](CC(O)Cn1ccc2cc(-c3ncc(C(F)(F)F)cn3)c(F)cc2c1=O)Oc1cn[nH]c(=O)c1C(F)(F)F (some centres unmarked) [Example 16],1.12 nM
8,"C[C@@H](C[C@@H](F)Cn1ccc2cc(-c3ncc(C(F)F)c(N)n3)c(F)cc2c1=O)Oc1cn[nH]c(=O)c1C(F)(F)F (single isomer, unassigned) [Example 14]",8.34 nM
9,"C[C@@H](CC(F)Cn1ccc2cc(-c3ncc(C(F)(F)F)cn3)c(F)cc2c1=O)Nc1cn[nH]c(=O)c1C(F)(F)F (stereo partly drawn) [Example 1, 7-fluoro-2-[(4S)-2-fluoro-4-[[6-oxo-5-(trifluoromethyl)-1H-pyridazin-4-yl]amino]pentyl]-6-[5-(trifluoromethyl)pyrimidin-2-yl]isoquinolin-1-one]",1.88 nM
10,C[C@@H](C[C@H](O)Cn1ccc2cc(-c3ncc(C(F)(F)F)cn3)c(F)cc2c1=O)Oc1cn[nH]c(=O)c1C(F)(F)F [Example 18],1.81 nM
11,C[C@@H](C[C@@H](F)Cn1ccc2cc(-c3ncc(C(C)(F)F)cn3)c(F)c(F)c2c1=O)Oc1cn[nH]c(=O)c1C(F)(F)F [Example 46],0.667 nM
12,C[C@@H](C[C@@H](F)Cn1cnc2cc(-c3ncc(C(F)F)c(N)n3)c(F)cc2c1=O)Nc1cn[nH]c(=O)c1C(F)(F)F [Example 69],19 nM
13,C[C@@H](C[C@@H](F)Cn1ccc2cc(-c3ncc(S(C)(=O)=O)cn3)c(F)cc2c1=O)Oc1cn[nH]c(=O)c1C(F)(F)F [Example 41],402 nM
14,C[C@@H](C[C@@H](F)Cn1ccc2cc(-c3ncc(C(F)(F)F)cc3F)c(F)cc2c1=O)Nc1cn[nH]c(=O)c1C(F)(F)F [Example 75],4.51 nM
15,"C[C@@H](C[C@@H](F)Cn1ccc2cc(-c3ncc(C(C)(C)O)cn3)c(F)cc2c1=O)Oc1cn[nH]c(=O)c1C(F)(F)F (single isomer, unassigned) [Example 51]",3.28 nM
16,O=c1[nH]ncc(NC(COC(F)F)CC(F)Cn2ccc3cc(-c4ncc(C(F)F)cn4)c(F)cc3c2=O)c1C(F)(F)F (centres unmarked) [Example 130],2.24 nM
17,CC(O)c1cnc(-c2cc3ccn(C[C@H](F)C[C@H](C)Nc4cn[nH]c(=O)c4C(F)(F)F)c(=O)c3cc2F)nc1 (some centres unmarked) [Example 111],4.64 nM
18,"C[C@@H](C[C@@H](O)Cn1ccc2cc(-c3ncc(C(F)F)cn3)c(F)cc2c1=O)Oc1cn[nH]c(=O)c1C(F)(F)F (single isomer, unassigned) [Example 19]",1.28 nM
19,C[C@@H](C[C@@H](F)Cn1ccc2cc(-c3ncco3)c(F)cc2c1=O)Nc1cn[nH]c(=O)c1C(F)(F)F [Example 102],170 nM
20,C[C@@H](C[C@@H](F)Cn1cnc2cc(-c3ncc(C(F)(F)F)cn3)c(F)cc2c1=O)Oc1cn[nH]c(=O)c1C(F)(F)F [Example 39],1.49 nM
21,C[C@@H](C[C@@H](F)Cn1ccc2cc(-c3ncc(OC(F)F)cn3)c(F)cc2c1=O)Nc1cn[nH]c(=O)c1C(F)(F)F [Example 97],0.97 nM
22,"CC(C)(O)c1cnc(-c2cc3ccn(CCC[C@@H](COC(F)F)Oc4cn[nH]c(=O)c4C(F)(F)F)c(=O)c3cc2F)nc1 (single isomer, unassigned) [Example 34]",10000 nM

row,Structure (SMILES),EC50
1,C[C@@H](C[C@@H](F)Cn1ccc2cc(-c3ncc(C(O)C(F)(F)F)cn3)c(F)cc2c1=O)Nc1cn[nH]c(=O)c1C(F)(F)F (some centres unmarked) [Example 79],5.05 nM
2,C[C@@H](C[C@@H](F)Cn1ccc2cc(-c3ncc(C(F)F)c(N)n3)c(F)c(F)c2c1=O)Oc1cn[nH]c(=O)c1C(F)(F)F [Example 42],0.836 nM
3,"C[C@@H](C[C@H](F)Cn1ccc2cc(-c3ncc(C(C)(C)O)cn3)c(F)cc2c1=O)Oc1cn[nH]c(=O)c1C(F)(F)F (single isomer, unassigned) [Example 61]",158 nM
4,C[C@@H](C[C@@H](F)Cn1cc(F)c2cc(-c3ncc(C(F)F)cn3)c(F)cc2c1=O)Nc1cn[nH]c(=O)c1C(F)(F)F [Example 29],1.86 nM
5,"C[C@@H](C[C@H](F)Cn1ccc2cc(-c3ncc(C(F)F)c(N)n3)c(F)cc2c1=O)Oc1cn[nH]c(=O)c1C(F)(F)F (single isomer, unassigned) [Example 15]",0.786 nM
6,C[C@@H](C[C@@H](F)Cn1ccc2cc(-c3cc[nH]n3)c(F)cc2c1=O)Nc1cn[nH]c(=O)c1C(F)(F)F [Example 73],136 nM
7,COc1cnc(-c2cc3ncn(C[C@@H](F)C[C@H](C)Oc4cn[nH]c(=O)c4C(F)(F)F)c(=O)c3cc2F)nc1 [Example 67],3.44 nM
8,C[C@@H](C[C@@H](F)Cn1ccc2cc(-c3ncc([C@@H](O)C(F)F)cn3)c(F)cc2c1=O)Nc1cn[nH]c(=O)c1C(F)(F)F [Example 80],7.89 nM
9,"O=c1[nH]ncc(N[C@@H](CO)C[C@@H](F)Cn2ccc3cc(-c4ncc(C(F)(F)F)cn4)c(F)cc3c2=O)c1C(F)(F)F [Example 123, 7-fluoro-2-((2R,4R)-2-fluoro-5-hydroxy-4-((6-oxo-5-(trifluoromethyl)-1,6-dihydropyridazin-4-yl)amino)pentyl)-6-(5-(trifluoromethyl)pyrimidin-2-yl)isoquinolin-1(2H)-one]",16.2 nM
10,C[C@@H](C[C@H](F)Cn1cc(F)c2cc(-c3ncc(C(C)(C)O)cn3)c(F)cc2c1=O)Oc1cn[nH]c(=O)c1C(F)(F)F [Example 66],91.6 nM
11,C[C@@H](C[C@@H](F)Cn1ccc2cc(-c3ncc(C(F)CF)cn3)c(F)cc2c1=O)Nc1cn[nH]c(=O)c1C(F)(F)F (some centres unmarked) [Example 94],4.58 nM
12,C[C@@H](C[C@@H](F)Cn1ccc2cc(-c3ncc(C(F)(F)F)cn3)c(F)c(F)c2c1=O)Nc1cn[nH]c(=O)c1C(F)(F)F [Example 32],0.912 nM
13,COc1cnc(-c2cc3ccn(CC(F)CC(COC(F)F)Nc4cn[nH]c(=O)c4C(F)(F)F)c(=O)c3cc2F)nc1 (centres unmarked) [Example 128],3.08 nM
14,COc1cnc(-c2cc3ccn(C[C@H](F)C[C@H](C)Oc4cn[nH]c(=O)c4C(F)(F)F)c(=O)c3c(F)c2F)nc1 [Example 44],0.375 nM
15,C[C@@H](C[C@H](F)Cn1ccc2cc(-c3ncc(S(C)(=O)=O)cn3)c(F)cc2c1=O)Oc1cn[nH]c(=O)c1C(F)(F)F [Example 60],10.2 nM
16,C[C@@H](C[C@@H](F)Cn1ccc2cc(-c3ncc(F)cn3)c(F)cc2c1=O)Nc1cn[nH]c(=O)c1C(F)(F)F [Example 108],2.9 nM
17,C[C@@H](C[C@H](F)Cn1cnc2cc(-c3ncc(C(F)(F)F)cn3)c(F)cc2c1=O)Oc1cn[nH]c(=O)c1C(F)(F)F [Example 58],35.3 nM
18,C[C@@H](C[C@@H](F)Cn1ccc2cc(-c3ncc(C4CC4)cn3)c(F)cc2c1=O)Nc1cn[nH]c(=O)c1C(F)(F)F [Example 95],1.36 nM
19,Nc1nc(-c2cc3ccn(CC(F)CC(COC(F)F)Nc4cn[nH]c(=O)c4C(F)(F)F)c(=O)c3cc2F)ncc1C(F)F (centres unmarked) [Example 127],6.55 nM
20,C[C@@H](C[C@@H](F)Cn1ccc2cc(-c3ccccn3)c(F)cc2c1=O)Nc1cn[nH]c(=O)c1C(F)(F)F [Example 74],6.56 nM
21,"CC(C)(O)c1cnc(-c2cc3ccn(CCCC(COC(F)F)Oc4cn[nH]c(=O)c4C(F)(F)F)c(=O)c3cc2F)nc1 (centres unmarked) [Example 33, 2-(5-(difluoromethoxy)-4-((6-oxo-5-(trifluoromethyl)-1,6-dihydropyridazin-4-yl)oxy)pentyl)-7-fluoro-6-(5-(2-hydroxypropan-2-yl)pyrimidin-2-yl)isoquinolin-1(2H)-one]",23.3 nM
22,C[C@@H](C[C@@H](F)Cn1ccc2cc(-c3ncc(C(F)F)cn3)c(F)cc2c1=O)Oc1cn[nH]c(=O)c1C(F)(F)F [Example 48],1.05 nM
